Measurements reported in PubChem BioAssay (NCI).
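Interpolation was linear, between the two tested concentrations surrounding the appropriate level; five concentrations were tested over 48 hours in 96-well plates. GI50: concentration for 50% inhibition of growth. TGI: total growth inhibition.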

Key:
Test in all cases: NCI anticancer screen, dose series, 48 h
COLO 205 colon = system: COLO 205 colon
SN12C renal = system: SN12C renal
HS 578T breast = system: HS 578T breast
HL-60(TB) leukemia = system: HL-60(TB) leukemia
PC-3 prostate = system: PC-3 prostate
MALME-3M melanoma = system: MALME-3M melanoma
UO-31 renal = system: UO-31 renal
RXF 393 renal = system: RXF 393 renal
SF-268 CNS = system: SF-268 CNS
M14 melanoma = system: M14 melanoma

| Compound | GI50 (COLO 205 colon) [µM] | TGI (COLO 205 colon) [µM] | GI50 (SN12C renal) [µM] | TGI (SN12C renal) [µM] | GI50 (HS 578T breast) [µM] | TGI (HS 578T breast) [µM] | GI50 (HL-60(TB) leukemia) [µM] | TGI (HL-60(TB) leukemia) [µM] | GI50 (PC-3 prostate) [µM] | TGI (PC-3 prostate) [µM] | GI50 (MALME-3M melanoma) [µM] | TGI (MALME-3M melanoma) [µM] | GI50 (UO-31 renal) [µM] | TGI (UO-31 renal) [µM] | GI50 (RXF 393 renal) [µM] | TGI (RXF 393 renal) [µM] | GI50 (SF-268 CNS) [µM] | TGI (SF-268 CNS) [µM] | GI50 (M14 melanoma) [µM] | TGI (M14 melanoma) [µM] |
| --- | --- | --- | --- | --- | --- | --- | --- | --- | --- | --- | --- | --- | --- | --- | --- | --- | --- | --- | --- | --- |
| CC[N+](CC)=c1ccc2nc3c(cc(NCc4ccccc4)c4ccccc43)oc-2c1 | 0.153 | 0.311 | 1.02 | 2.34 | 0.522 | 3.27 | 0.209 | 1.11 | 0.264 | 1.63 | 0.172 | 0.358 | 0.089 | 1.15 | 0.781 | 2.12 | 0.307 | 1.51 | 0.273 | 0.75 |
| Nc1c(C(=O)c2cccc(OCCN3CCOCC3)c2)cnn1-c1ccc(F)cc1 | > 25 | > 25 | > 25 | > 25 | > 25 | > 25 | > 25 | > 25 | > 25 | > 25 | > 25 | > 25 | > 25 | > 25 | > 25 | > 25 | > 25 | > 25 | > 25 | > 25 |
| COc1ccc2nc(NCCCNCCO)c3sc4ccc(F)cc4c(=O)c3c2c1 | 1.8 | 3.77 | 1.56 | 3.03 | 1.6 | 3.57 | 1.92 | 3.87 | 1.56 | 3.04 | 1.69 | 3.23 | 1.46 | 2.8 | 1.26 | 2.61 | 1.45 | 3.15 | 1.85 | 3.48 |
| C(CCc1nnc2c(n1)CCCC2)Cc1nnc2c(n1)CCCC2 |  | > 100 |  | > 100 |  | > 100 |  | > 100 |  | > 100 |  | > 100 |  | > 100 |  | > 100 |  | > 100 |  | > 100 |
| COC(=O)c1c2c(c(C)[n+]([O-])c1C)C(=O)C=C(NCc1cccc(OC)c1)C2=O | 0.293 | 0.928 | 0.323 | 1.24 | 1.64 | 6.25 | 0.317 | 1.15 | 0.333 | 2.73 | 0.15 | 0.341 | 1.13 | 2.44 | 1.27 | 2.63 | 1.26 | 4.21 | 0.405 | 1.54 |
| Cc1cc(=O)oc2cc(OC(=O)Nc3ccc(Cl)c(Cl)c3)ccc12 |  | 96.5 |  | 70.9 |  | 66.4 |  | 41.9 |  | 68.2 |  | 51.8 |  | 72.7 |  | 52.3 |  | > 100 |  | 50.9 |
| CC(C)(C)OC(=O)NCCCCCCCCn1c2c(c3ccccc3c1=O)C(=O)c1ccccc1-2 | > 50 | > 50 | > 50 | > 50 | 7.04 | 27.5 | > 50 | > 50 | > 50 | > 50 | > 15.9 | > 43.7 | 34 | > 50 | 8.49 | 24.5 | 19.5 | > 50 | > 50 | > 50 |
| O=C(O)CCC1COc2ccccc2O1 (centres undefined) |  | > 10 |  | > 10 |  | > 10 |  | > 10 |  | > 10 |  | > 10 |  | > 10 |  | > 10 |  | > 10 |  | > 10 |
| O=C(Oc1ccc([N+](=O)[O-])cc1)N1CCN(Cc2cccc(Oc3ccccc3)c2)CC1 | > 83.5 | > 100 | > 100 | > 100 | > 100 | > 100 | 24.2 | > 100 | > 69.6 | > 100 | > 95.3 | > 100 | 8.17 | > 100 | > 100 | > 100 | > 100 | > 100 | > 100 | > 100 |
| COc1cc(/C=C/C(=O)c2cc(F)c(Cl)cc2Cl)cc(OC)c1OC | 14.7 | 45.5 | 27.7 | > 100 | 28.7 | > 100 | 16.6 | 71.9 | 12.5 | 85.8 | 10.8 | 37.7 | 16.3 | 32.8 | 17.2 | 62.2 | 68.9 | > 100 | 43.9 | > 100 |
| CN1CCN(c2ccc(-c3cnc4c(-c5csc6ccccc56)cnn4c3)cc2)CC1 | 7.28 | > 15 | 14.8 | > 15 | 10.9 | > 15 | 5.89 | > 15 | 5.59 | > 15 | 3.04 | 7.68 | 10.3 | > 15 | 3.5 | 10.7 | > 15 | > 15 | 5.01 | > 15 |
| COc1cccc(/C=C/C(=O)c2ccc(Cl)cc2Cl)c1OC | 5.44 | 17.4 | 5.73 | 19.9 |  | 39.8 | 2.4 | 5.85 | 4.32 | 17.1 | 13.8 | 28.2 | 3.43 | 17.4 | 4.07 | 15.8 | 12.9 | 41.5 | 13.7 | 26.7 |
| NC(=O)c1[nH]nc(C2OC(CO)C(O)C2O)c1O (centres undefined) |  | 1660 |  | 819 |  | 1620 |  | 63.7 |  | 794 |  | 2660 |  | 1020 |  | 551 |  | 3560 |  | 882 |
| O=C1C=CC(=O)C1(Br)Br |  | 24.1 |  | 21.4 |  | 50.1 |  | 49 |  | 33.1 |  | 41.5 |  | 18.7 |  | 15.9 |  | 37.9 |  | 38.1 |
| Cc1cc(S(=O)(=O)Nc2nc3ccsc3c(=O)n2Cc2ccco2)c(S)cc1Cl | > 100 | > 100 | > 100 | > 100 | 81 | > 100 | 25.5 | > 100 | > 100 | > 100 | > 100 | > 100 | > 100 | > 100 | > 100 | > 100 | 99 | > 100 | > 100 | > 100 |
